Target: D(1A) dopamine receptor (Homo sapiens, UniProt P21728)
Assay: Positive allosteric modulator activity at human dopamine D1 receptor expressed in HEK293 cells assessed as potentiation of dopamine-induced cAMP accumulation by measuring dopamine EC50 at 50 uM measured after 30 mins by HitHunter assay (Rvb = 214 nM)

D(1A) dopamine receptor, sequence (P21728 whole entry): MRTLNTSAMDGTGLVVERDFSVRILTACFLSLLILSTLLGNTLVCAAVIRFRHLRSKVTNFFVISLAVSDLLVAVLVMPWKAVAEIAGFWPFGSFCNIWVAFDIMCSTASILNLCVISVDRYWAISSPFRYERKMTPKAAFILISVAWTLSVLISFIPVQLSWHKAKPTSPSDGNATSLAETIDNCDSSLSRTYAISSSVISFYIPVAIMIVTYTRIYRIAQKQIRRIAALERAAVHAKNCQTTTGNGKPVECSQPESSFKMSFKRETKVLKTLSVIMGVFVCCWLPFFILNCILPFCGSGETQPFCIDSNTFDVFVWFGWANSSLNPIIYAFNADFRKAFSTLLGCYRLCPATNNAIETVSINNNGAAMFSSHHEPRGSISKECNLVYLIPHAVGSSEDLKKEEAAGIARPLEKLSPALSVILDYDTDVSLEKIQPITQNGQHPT

Row | Compound | EC50 [µM]
1 | Cn1c2ccccc2c(=O)c2c(=O)n(-c3ccccc3)c(C3CCCCC3)nc21 | 0.123

Target: D(1B) dopamine receptor (Homo sapiens, UniProt P21918)
Assay: Positive allosteric modulator activity at human dopamine D5 receptor expressed in CHO-K1 cells assessed as potentiation of dopamine-induced beta-arrestin2 recruitment by measuring dopamine EC50 at 50 uM incubated for 90 mins by PathHunter assay (Rvb = 81.7 nM)

D(1B) dopamine receptor, sequence (P21918 whole entry): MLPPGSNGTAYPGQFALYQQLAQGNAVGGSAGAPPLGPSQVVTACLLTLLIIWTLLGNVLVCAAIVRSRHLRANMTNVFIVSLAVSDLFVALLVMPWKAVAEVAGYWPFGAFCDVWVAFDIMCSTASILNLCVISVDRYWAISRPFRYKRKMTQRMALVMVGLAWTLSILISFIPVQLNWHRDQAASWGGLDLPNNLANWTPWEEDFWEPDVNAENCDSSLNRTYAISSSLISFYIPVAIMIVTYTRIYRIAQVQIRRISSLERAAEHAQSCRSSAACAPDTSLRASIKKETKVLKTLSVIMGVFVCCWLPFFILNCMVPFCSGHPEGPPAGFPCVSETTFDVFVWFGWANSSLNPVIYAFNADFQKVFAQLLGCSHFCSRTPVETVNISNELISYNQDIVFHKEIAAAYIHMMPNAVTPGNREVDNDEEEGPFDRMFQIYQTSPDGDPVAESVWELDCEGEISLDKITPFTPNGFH

Row | Compound | EC50 [µM]
2 | Cn1c2ccccc2c(=O)c2c(=O)n(-c3cccc(Cl)c3)c(C3CCCC3)nc21 | 0.043
3 | CC(C)Cc1nc2c(c(=O)c3ccccc3n2C)c(=O)n1-c1cccc(Cl)c1 | 0.063
4 | Cn1c2ccccc2c(=O)c2c(=O)n(-c3ccc(Cl)cc3)c(C3CCCC3)nc21 | 0.043
5 | Cc1ccc(-n2c(C3CCCC3)nc3c(c(=O)c4ccccc4n3C)c2=O)cc1 | 0.027
6 | COc1ccc(-n2c(C3CCCCC3)nc3c(c(=O)c4ccccc4n3C)c2=O)cc1Cl | 0.059
7 | Cn1c2ccccc2c(=O)c2c(=O)n(-c3ccccc3)c(CC3CCCCC3)nc21 | 0.049
8 | Cn1c2ccccc2c(=O)c2c(=O)n(-c3ccccc3)c(C3CCCC3)nc21 | 0.08
9 | COc1ccc(-n2c(CC(C)C)nc3c(c(=O)c4ccccc4n3C)c2=O)cc1 | 0.034
10 | Cc1ccc(-n2c(CC3CCCCC3)nc3c(c(=O)c4ccccc4n3C)c2=O)cc1 | 0.168
11 | COc1ccc(-n2c(C3CCCC3)nc3c(c(=O)c4ccccc4n3C)c2=O)cc1 | 0.025
12 | CC(C)Cc1nc2c(c(=O)c3ccccc3n2C)c(=O)n1-c1ccc(Cl)cc1 | 0.056
13 | COc1ccc(-n2c(CC3CCCCC3)nc3c(c(=O)c4ccccc4n3C)c2=O)cc1Cl | 0.094
14 | COc1ccc(-n2c(C3CCCCC3)nc3c(c(=O)c4ccccc4n3C)c2=O)cc1 | 0.062
15 | Cn1c2ccccc2c(=O)c2c(=O)n(-c3ccc(Cl)cc3)c(CC3CCCCC3)nc21 | 0.074
16 | Cn1c2ccccc2c(=O)c2c(=O)n(-c3cccc(Cl)c3)c(C3CCCCC3)nc21 | 0.08
17 | Cn1c2ccccc2c(=O)c2c(=O)[nH]c(C3CCCC3)nc21 | 0.082
18 | COc1ccc(-n2c(CC(C)C)nc3c(c(=O)c4ccccc4n3C)c2=O)cc1Cl | 0.058
19 | CC(C)Cc1nc2c(c(=O)c3ccccc3n2C)c(=O)n1-c1ccccc1 | 0.103
20 | Cn1c2ccccc2c(=O)c2c(=O)n(-c3ccccc3)c(C3CC3)nc21 | 0.095
21 | Cn1c2ccccc2c(=O)c2c(=O)n(-c3ccc(Cl)cc3)c(C3CCCCC3)nc21 | 0.044
22 | Cn1c2ccccc2c(=O)c2c(=O)n(-c3ccccc3)c(C3CCCCC3)nc21 | 0.029
23 | Cn1c2ccccc2c(=O)c2c(=O)n(-c3cccc(Cl)c3)c(CC3CCCCC3)nc21 | 0.095
24 | COc1ccc(-n2c(C3CCCC3)nc3c(c(=O)c4ccccc4n3C)c2=O)cc1Cl | 0.028
25 | Cc1ccc(-n2c(C3CCCCC3)nc3c(c(=O)c4ccccc4n3C)c2=O)cc1 | 0.027
26 | Cc1ccc(-n2c(CC(C)C)nc3c(c(=O)c4ccccc4n3C)c2=O)cc1 | 0.044

Reference: BindingDB's records for doi:10.1016/j.bmcl.2020.127696 (National Institutes of Health, 2021)
